Test results reported in patent publication US12662518B2, “Engineered peptide and peptide mimetic compositions and methods” (The Wistar Institute of Anatomy and Biology, priority 2019, dated 2026).
Entries after “also recorded” stand apart in the source; their conditions may differ. Ends that are not written are not given here. Peptide text beside a SMILES is read from it.

Legend:
[1] = system: drug-sensitive and drug-resistant melanoma cells; details: isogenic pairs, CellTox reactivity
Experimental: (§2) Cell death and apoptosis. […] The various cell-permeable MFF peptides were examined for induction of cytotoxicity using a CellTOX Green cytotoxicity assay kit (Promega). Briefly, 10^4 normal or tumor cells in 100 μl complete medium were plated on white opaque 96-well plate. […] Lysis Solution in the assay kit was used as cytotoxicity control (100% cell death) and treatment with PBS was used as a control for 100% cell viability.

[2] = system: immortalized wild type (WT) mouse embryonic fibroblasts (MEF); assay: cell death of wild type MEF; type: cell-based; details: 10-50 μM
From the text: (§1) Cell death and apoptosis.

CypD^−/− MEF = assay: cell death of CypD-/- MEF; type: cell-based, mouse; details: 25 μM
From the text: as §1

PC3 cells [3] = assay: mitochondrial membrane potential in tumor cells, TMRE, time-lapse videomicroscopy and flow cytometry; type: cell-based, human; details: 10 μM, single-cell time-lapse videomicroscopy or whole cell population
Experimental: Analysis of mitochondrial membrane potential. […] In some experiments, PC3 cells were treated with cell-permeable scrambled peptide or cell-permeable MFF #8-11 peptide, washed three times in PBS, pH 7.4, and analyzed on a FACSCalibur flow cytometer, with the TMRE signal as FL1. Intact cells were gated in the FSC/SSC plot to exclude small debris. Cells treated with 20 μM FCCP 10 min prior to TMRE staining were used as a negative control. The resulting FL1 data were plotted on a histogram. For quantification of membrane potential of purified mitochondria, mitochondria isolated from PC3 cells (50 μg) were suspended in 400 μl of SB buffer (0.2 M sucrose, 10 mM Tris-MOPS, pH 7.4, 5 mM succinate, 1 mM sodium phosphate, 10 μM EGTA-Tris, 2 μM rotenone). […] After two washes with SB buffer, mitochondria were recovered by centrifugation at 6000×g for 10 min, suspended in 100 μl of SB buffer and mitochondrial membrane potential was quantified on a florescence microplate reader (Ex/Em=535/595 nm, Beckman Coulter). […]
For time-lapse videomicroscopy, PC3 cells (2×10^4) growing in high optical-quality glass bottom chambered 8-well cell culture slides (MatTek Corporation) were stained with 100 nM TMRE (Abcam) and 50 nM MitoTracker Green FM (Life Technologies) for 20 min. […] A minimum of 100 cells were analyzed from 2 independent experiments. […]

DU145 or PC3 cells = assay: release of HMGB1 and cyclophilin A from tumor cells, Western blotting; type: cell-based, human; details: marker of necrosis
PC3 cells [4] = assay: cytochrome c release from tumor cells, Western blotting; type: cell-based, human; details: supernatants vs mitochondrial extracts
glioblastoma LN229 cells = assay: cell death of glioblastoma cells; type: cell-based, human
From the text: as §1

[5] = system: prostate cancer cell types (LNCaP, C4-2B, PC3, DU145); assay: cell death of prostate cancer cells, CellTox reactivity; type: cell-based, human; details: for tumor cell death / viability: PC3 / prostate cancer cells, 0-50 μM
Experimental: as §2

[6] = system: NSCLC A549 and H460 or breast adenocarcinoma MDA-231 and MCF-7 cells; assay: NSCLC and breast adenocarcinoma cell lines, TMRE flow cytometry and CellTox cell death; type: cell-based, human; details: A549, H460, MDA-231, MCF-7 cells, 10-25 μM
[7] = system: normal human foreskin fibroblasts (HFF); assay: cell death of normal fibroblasts; type: cell-based; details: 0-40 μM
From the text: as §1

[8] = system: patient-derived breast adenocarcinoma organoids; assay: patient-derived breast adenocarcinoma organoids, Ki-67 and cleaved caspase-3 immunohistochemistry; type: cell-based, human; details: 50-100 μM, 24 h
[9] = system: patient-derived glioblastoma (GBM) neurospheres; assay: patient-derived glioblastoma (GBM) neurospheres, calcein / To-Pro viability; type: cell-based; details: 10-50 μM, 1, 3 or 24 h; scrambled 50 μM
From the text: Glioblastoma (GBM) neurospheres. Primary, patient-derived GBM neurospheres were isolated and maintained in culture essentially as described (Senft, D. & Ronai, Z. A. Regulators of mitochondrial dynamics in cancer. Curr Opin Cell Biol 39, 43-52 (2016)). Tissue samples were obtained from chemotherapy- or radiotherapy-naïve patients with confirmed histological diagnosis of WHO grade IV glioma (GBM) undergoing treatment at the Neurosurgery Division of Fondazione IRCCS Ca' Granda Ospedale Maggiore Policlinco (Milan, Italy). Written informed consent was obtained from all patients. Neurospheres were cyto-spinned on charged slides (Thermo Scientific, Waltham, Mass.) and treated with cell-permeable scrambled peptide (50 μM) or cell-permeable retro-inverso D-enantiomer MFF peptide (10-50 μM) for up to 24 h. Control-normalized changes in cell viability under the various conditions were determined by the ratio of Calcein (alive) and To-Pro (dead) staining and fluorescence microscopy (Eclipse Ti-E, Nikon Instruments, Florence, Italy).

[10] = system: patient-derived NSCLC organoids; assay: patient-derived NSCLC organoids, Ki-67 and cleaved caspase-3 immunohistochemistry; type: cell-based, human; details: 50-100 μM, 24 h
[11] = system: normal prostatic epithelial cells (BPH-1); assay: cell death of normal prostatic epithelial cells; type: cell-based, human; details: 0-40 μM, 2 h
From the text: as §1

| Compound | cell death of drug-sensitive and drug-resistant melanoma cells [1] | cell death of WT MEF [2] | cell death of CypD^−/− MEF (CypD^−/− MEF) | loss of mitochondrial membrane potential (PC3 cells [3]) | HMGB1 release from tumor cells (DU145 or PC3 cells) | cyclophilin A (CypA) release from tumor cells (DU145 or PC3 cells) | cytochrome c release from tumor cells (PC3 cells [4]) | IC50 (glioblastoma LN229 cells; glioblastoma, read-out: IC50, cell killing) | tumor cell death / viability [5] | IC50 ([5]; prostate cancer cell types, read-out: IC50, cell killing) | tumor cell death ([6]; CellTox) | mitochondrial membrane potential ([6]; TMRE) | cell death of normal fibroblasts (HFF) [7] | apoptosis / cell death markers (cleaved caspase-3^+ cells), breast adenocarcinoma organoids [8] | cell proliferation (Ki-67^+ cells), breast adenocarcinoma organoids [8] | cytotoxicity for patient-derived GBM neurospheres (loss of cell viability) [9] | apoptosis / cell death markers (cleaved caspase-3^+ cells), NSCLC organoids [10] | cell proliferation (Ki-67^+ cells), NSCLC organoids [10] | cell death of normal prostatic epithelial cells [11] | killing of GBM LN229 cells (glioblastoma LN229 cells; 0-40 μM) |
| --- | --- | --- | --- | --- | --- | --- | --- | --- | --- | --- | --- | --- | --- | --- | --- | --- | --- | --- | --- | --- |
| CC[C@H](C)[C@H](NC(=O)CNC(=O)[C@H](CCCNC(=N)N)NC(=O)[C@H](C)NC(=O)[C@H](CO)NC(=O)[C@H](CCCCN)NC(=O)[C@H](CCSC)NC(=O)[C@H](CCCNC(=N)N)NC(=O)[C@H](CCCNC(=N)N)NC(=O)[C@H](CC(N)=O)NC(=O)[C@H](CCC(N)=O)NC(=O)[C@H](Cc1ccccc1)NC(=O)[C@H](Cc1c[nH]c2ccccc12)NC(=O)[C@@H](NC(=O)[C@H](CCCCN)NC(=O)[C@@H](NC(=O)[C@H](CCC(N)=O)NC(=O)[C@H](CCCNC(=N)N)NC(=O)CCCCCNC(=O)CCCC[C@@H]1SC[C@@H]2NC(=O)N[C@@H]21)[C@@H](C)CC)[C@@H](C)CC)C(=O)N[C@@H](CC(C)C)C(=O)N[C@@H](CO)C(=O)N[C@@H](CC(C)C)C(=O)N[C@H](C(=O)N[C@@H](CCC(N)=O)C(=O)N[C@@H](CO)C(=O)N[C@@H](CO)C(=O)N[C@H](C(=O)N[C@@H](CCCNC(=N)N)C(=O)N[C@@H](CCCNC(=N)N)C(=O)N[C@@H](C)C(=O)N[C@@H](Cc1ccc(O)cc1)C(=O)N[C@@H](CCC(N)=O)C(=O)N[C@@H](CCC(N)=O)C(=O)N[C@H](C(=O)N[C@@H](CC(C)C)C(=O)O)[C@@H](C)CC)[C@@H](C)O)[C@@H](C)CC [cell-permeable MFF peptide #8-11] (HELM PEPTIDE1{[O=C1N[C@H]2[C@H](CS[C@H]2CCCCC(=O)[*:2])N1].[O=C(CCCCCN[*:1])[*:2]].R.Q.I.K.I.W.F.Q.N.R.R.M.K.S.A.R.G.I.L.S.L.I.Q.S.S.T.R.R.A.Y.Q.Q.I.L}$$$$V2.0; N-terminus and C-terminus assumed) | comparably killed | killed immortalized wild type (WT) mouse embryonic fibroblasts (MEF) in a concentration-dependent manner; also recorded: efficiently killed WT MEF in a time- and concentration-dependent response | abolished cell death | induced acute loss of mitochondrial membrane potential; also recorded: induced sudden loss of mitochondrial membrane potential | induced the release of HMGB1 and cyclophilin A (CypA) | induced the release of HMGB1 and cyclophilin A (CypA) | induced cytochrome c release | ~10 µM | efficiently killed tumor cells in a time- and concentration-dependent manner | ~10 µM |  |  |  |  |  |  |  |  |  |  |
| cell-permeable scrambled peptide: cell-permeable control scrambled peptide #8-11 (SEQ ID NO: 22) (SSQLRYLARSQRITIQLIAGS; also: cell-permeable moiety) |  |  |  | not | had no effect on HMGB1 release; also recorded: did not induce HMGB1 release |  |  |  | did not kill normal or prostate cancer cells |  | had no effect | had no effect | did not kill normal or prostate cancer cells | had no effect | had no effect | not | had no effect | had no effect | did not kill normal or prostate cancer cells | did not cause LN229 cell killing |
